Results on three compounds are retold here after US11267842B2, “Enzymatic modification of nucleic acids” (The Regents of the University of California, priority 2015, dated 2022).

In assay [1] the target is T1, bacterial (E.coli) tRNA guanine transglycosylase (TGT) (Escherichia coli, UniProt P0A847).
T1 construct: His6 (C); made in house; host or cells: E. coli BL21
The assay is described as follows: TGT-catalyzed incorporation of PreQ1 analogs into RNA oligonucleotide hairpins (LC / HRMS). Type of assay: biochemical. As to the method:
General TGT reaction with RNA oligonucleotide hairpins TGT reaction conditions were adapted from a previously reported literature procedure.^1 An eppendorf tube containing 10 μM RNA oligonucleotide, 100 μM PreQ1 analog, and 10 μM TGT enzyme were prepared in a final volume of 50 μL of TGT reaction buffer. The reactions were incubated at 37° C. for a minimum of 2 hours. The reactions were halted by chilling samples to 4° C. or freezing at −80° C. until purified or analyzed.
Liquid chromatography and mass spectroscopy analysis of preQ1 modified RNA hairpins. Samples were first prepared according to the general procedure. Samples were allowed to react for 6 hours and frozen at −80° C. until analyzed (PreQ1-Biotin required 24 hours for completion). Samples were diluted 1:2 with milli-Q water and injected onto a clarity Oligo-MS column (Phenomenex, Torrance, Calif.) and analyzed by HPLC according to the following gradient: (A=Milli-Q water containing 20% hexafluoroisopropanol (HFIP) and 0.1% TEA, B=methanol), Initial conditions 95% A, 5% B, hold 2 min then a linear gradient starting at 2 min and ending at 10 min with 45% A, 55% B. Samples were monitored at 260 nm as well as either 505 nm or 700 nm as appropriate when fluorophore PreQ1 analogs were employed. HRMS samples were collected in negative ion mode and analyzed in a similar manner by combining the mass spectrum traces across the peak of interest. Raw mass spectrum were deconvoluted using MagTran software package v.

In another assay the target is T2, streptavidin (Streptomyces avidinii, UniProt P22629).
T2 construct: purchased Life Technologies
The assay is described as follows: Streptavidin gel shift of RNA hairpins modified with PreQ1-Biotin. It is filed as binding. The note with it: ECY-A1 vs ECY-A1ΔC, with and without TGT; 15% denaturing PAGE (FIG. 2C). On the procedure:
Streptavidin gel shift of RNA hairpins. ECY-A1 RNA and ECY-A1ΔC was incubated in a mixture of 10 μM RNA, 100 μM preQ1-Biotin, and 1 μM TGT (omitted in control samples) in TGT reaction buffer at 37° C. for 24 hours. After the reactions were complete, the RNA was precipitated by addition of 10% volume of 3M sodium acetate and 2.5 volumes 95% ethanol and incubation at −20° C. overnight. After centrifugation at 4° C. (16,100 g, 30 min), the resulting RNA pellet was resuspended in water, and the concentration of RNA was quantified. The prepared RNA was then incubated in the presence of streptavidin (Life Technologies, Carlsbad, Calif.) at 37° C. for 1 hour in a mixture containing the following: 10 mM Tris (pH 8.1), 2.5 μM RNA, and 50 μM streptavidin. 1X RNA loading dye (NEB, Ipswitch, Mass.) was added to the sample (without heat denaturation) and samples were analyzed by 15% denaturing PAGE.
(Mobility shift assays separate free from complexed probe on a gel.)

In assay [2] the target is T3, streptavidin M-280 DYNABEADS (Streptomyces avidinii, UniProt P22629).
T3 construct: purchased Life Technologies M280
The assay is described as follows: DYNABEADS streptavidin pull-down of PreQ1-Biotin modified transcripts. Type of assay: binding. The note with it: mCherry-TAG vs mCherry-TAGΔC after TGT labeling (FIGS. 3C and 10). As to the method:
DYNABEADS® Streptavidin pull-down of PreQ1-Biotin modified transcripts. mCherry-TAG and mCherry-TAGΔC transcripts was incubated in a mixture of 1 μM RNA, 100 μM preQ1-Biotin, and 1 μM TGT (omitted in control samples) in TGT reaction buffer at 37° C. for 4 hours. 1 unit of RNAseIn (Promega, Madison, Wis.) was added to the reaction to prevent transcript degradation. Samples were drop dialyzed through 0.02 μm MF-Millipore membrane filter (Millipore, Billerica, Mass.) using 25 mL Milli-Q water and subsequently ethanol precipitated by addition of 10% volume of 3M sodium acetate and 2.5 volumes 95% ethanol and incubation at […] overnight. After centrifugation at 4° C. (16,100 g, 30 min), the resulting RNA pellet was resuspended in water, and the concentration of RNA was quantified.
Streptavidin M280 DYNABEADS® (Life Technologies, Carlsbad, Calif.) were washed according to manufacturer's instructions for RNA applications using binding and washing (B&W) buffer. Beads were blocked in B&W buffer with yeast tRNA (0.1 mg/100 uL of beads). Following the blocking step, beads were washed twice with B&W buffer. Pull down was then performed by incubation of 1 μg of prepared RNA with 10 uL of washed beads in B&W buffer at room temperature for 30 minutes with constant rotation. The beads were then washed three times with B&W buffer. […] Samples were then analyzed by 4% denaturing PAGE.

For assay [3], the target named is T1, bacterial (E.coli) tRNA guanine transglycosylase (TGT). It is filed as biochemical. The conditions noted are these: TGT present; 4% denaturing PAGE (FIG. 3A, FIG. 7).
Experimental: General labeling reaction procedure for fluorescence spectra and gel analysis. A 25 μL reaction was setup in a small eppendorf tube containing 100 nM RNA transcript, 50 μM PreQ1 analog, and 1μM TGT in TGT reaction buffer. 1 unit of RNaseln (Promega, Madison, Wis.) was added to each reaction to prevent degradation of the transcript. The reaction was allowed to proceed for 4 hours, after which the sample was cooled to 4° C. and either used directly or stored at −80° C. until further analyzed.
Gel Analysis of TGT reactions with PreQ1 analogs. […] After the reactions were complete, the RNA was precipitated by addition of 10% volume of 3M sodium acetate and 2.5 volumes 95% ethanol. The samples were then precipitated at −80° C. for 2 hours after which they were centrifuged at 16,100 g for 30 minutes at 4° C. The ethanol was carefully pipetted away and the RNA pellet was allowed to air dry for 10 minutes on the bench. The pellet was resuspended in 10 μL of 1X RNA loading dye (NEB, Ipswitch, Mass.), heated to 95° C. for 2 minutes, placed on ice for 20 minutes, and subsequently loaded into a freshly poured denaturing 4% polyacrylamide gel (4% polyacrylamide in 1X TBE buffer with 8% urea) and run at 120 V for approximately 2 hours until the xylene cyanol blue dye had reached the bottom of the gel. […]
Assay [4] has as its system mCherry-TAG RNA endogenously expressed in CHO cells. Briefly: Fixed cell labeling of endogenously expressed mCherry-TAG transcript. Type of assay: cell-based, Chinese hamster. The note with it: 50 μM PreQ1-Cy7, with TGT and mCherry-TAG plasmid vs controls without (FIG. 4). As to the method:
Fixed Cell Labeling of Endogenously Expressed mCherry-ECY-A1 Transcript. Chinese Hamster Ovary (CHO) cells (CRL-9606, ATCC, Manassas, Va.) were cultured in Ham's F-12K media (Life Technologies, Carlsbad, Calif.) and kept under 20 passages from the ATCC standard line. CHO cells were plated at an initial density of 10,000 cells per well in a Nunc Lab-Tek 8 well chamber slide (Thermo Scientific, Waltham, Mass.). Cells were allowed to adhere overnight and washed with Opti-MEM media (Life Technologies, Carlsbad, Calif.) and subsequently transfected with […] of mCherry-TAG plasmid per well with 1.5 μL of Lipofectamine® 2000 (Life Technologies, Carlsbad, Calif.) in Opti-MEM as per manufacture's protocol. Control wells lacking transfection were treated and washed with Opti-MEM in the absence of DNA and lipofectamine®. After overnight transfection, the cells were washed twice with PBS (200 μL each) and fixed with 100 μL of a 3.7% paraformaldehyde in PBS solution for 10 minutes at room temperature. Cells were then permeabilized by treatment with 100 μL of 0.1% Triton X-100 in PBS for 20 minutes at room temperature and washed 2×200 μL with fresh PBS. Cells were then treated for four hours at 37° C. with 100 μL of TGT reaction buffer containing 50 μM PreQ1-Cy7 either with or without 10 μM TGT enzyme added. […] Images were subsequently analyzed and processed using ImageJ (NIH, rsbweb.nih.gov).

Assay [5] deals with T1, bacterial (E.coli) tRNA guanine transglycosylase (TGT). Briefly: Fluorescence emission spectra of PreQ1-TO probe turn-on with ECY-A1 hairpin. Type of assay: biochemical. The note with it: RNA hairpin ECY-A1; normalized to PreQ1-TO in the absence of RNA and TGT (FIG. 2B). On the procedure:
Fluorescence emission spectra of PreQ1-TO probe turn-on with ECY-A1 hairpin. Samples of ECY-A1, ECY-A1ΔC, and ECY-X1 were first prepared in a similar fashion to the general protocol except only 20 μM PreQ1-TO was employed to avoid non-specific binding to the hairpins. Samples were allowed to react for 2 hours, verified to be at completion by HPLC, and diluted 30-fold into TGT reaction buffer. Spectra were then collected on a Fluoromax-P spectrophotometer by excitation at 501 nm and scanning emission from 510 to 600 nm with excitation and emission slit width at 5 nm and an integration time of 1 s. All spectra were background subtracted from TGT reaction buffer and Normalized against the fluorescence intensity values of a sample containing an analogous concentration of PreQ1-TO (0.667 μM) in TGT reaction buffer.

Assay [6] has the same target. Briefly: Fluorescence emission spectra of PreQ1-TO probe turn-on with mCherry-TAG RNA. It is filed as biochemical. On the procedure:
Fluorescence emission spectra of PreQ1-TO probe turn-on with mCherry-TAG RNA. Fluorescence emission spectra were collected in a similar fashion to that described previously for the short RNA hairpins. 25 μL reactions were setup with 10 μM TGT enzyme, 20 μM PreQ1-TO, and 100 nM transcript RNA and incubated at 37° C. for 2 hours. Samples were then diluted 30-fold and measured under the same conditions and parameters as that of the short hairpins.

T1 sequence (P0A847 whole entry, added parts left off): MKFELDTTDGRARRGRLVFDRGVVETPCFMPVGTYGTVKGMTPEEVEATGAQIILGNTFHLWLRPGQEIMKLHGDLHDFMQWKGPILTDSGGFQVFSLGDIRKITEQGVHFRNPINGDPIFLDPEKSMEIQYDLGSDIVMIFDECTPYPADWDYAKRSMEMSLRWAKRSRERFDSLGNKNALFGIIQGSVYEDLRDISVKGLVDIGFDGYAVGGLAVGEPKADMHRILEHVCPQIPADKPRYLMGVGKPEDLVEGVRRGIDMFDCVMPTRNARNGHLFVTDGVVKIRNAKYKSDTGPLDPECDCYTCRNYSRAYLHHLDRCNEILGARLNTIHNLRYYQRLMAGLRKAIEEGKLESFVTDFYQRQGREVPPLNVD
T2 sequence (P22629 25-183): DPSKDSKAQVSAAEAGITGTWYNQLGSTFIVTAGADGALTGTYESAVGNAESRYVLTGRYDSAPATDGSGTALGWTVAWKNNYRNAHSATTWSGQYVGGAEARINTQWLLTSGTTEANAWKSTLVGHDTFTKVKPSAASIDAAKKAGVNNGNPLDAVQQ
T3 sequence (P22629 25-183): as above

For the compound `Nc1nc2[nH]cc(CNCCOCCOCCOCCNC(=O)CCCC[C@@H]3SC[C@@H]4NC(=O)N[C@@H]43)c2c(=O)[nH]1` [PreQ1-Biotin], the “reaction time required for completion of TGT labeling of ECY-A1” value in assay [1] (37° C., other analogs 6 hour incubation) was 24 h. For the same compound, at streptavidin, the “streptavidin gel shift of ECY-A1 modified by TGT” value was “biotin remains functional as an affinity tag”. Further, the “RNA recovered in streptavidin pull-down” value in assay [2] is “single RNA band corresponding to transcript only when mCherry transcript contained the ECY-A 1 hairpin”.
Turning to `CN1/C(=C/C=C2C=C(/C=C/C3=[N+](CCCCCC(=O)NCCOCCOCCOCCNCc4c[nH]c5nc(N)[nH]c(=O)c45)c4ccccc4C3(C)C)CCC/2)C(C)(C)c2ccccc21.O=C[O-]` [PreQ1-Cy7], the “fluorescent labeling of mCherry-TAG transcript” value in assay [3] is “labeling of the transcript took place”. The “staining of fixed, permeabilized CHO cells” value in assay [4] is given as “significantly greater staining of fixed cells”.
On to `CN1/C(=C/c2cc[n+](CCCCCC(=O)NCCOCCOCCOCCNCc3c[nH]c4nc(N)[nH]c(=O)c34)c3ccccc23)Sc2ccccc21.O=C[O-]` [PreQ1-TO], for which the “RNA substrate selectivity of incorporation” value in assay [1] (ECY-A1 compared with ECY-A1ΔC and ECY-X1 (FIG. 20B)) was “selectively incorporated into ECY-A1”. For the same compound, in assay [1] (RNA hairpins ECY-A1ΔC and ECY-X1, with TGT, by LC/MS), the “incorporation of PreQ1-TO into alternative RNA hairpins” value is listed as “unable to detect incorporation”. In assay [5], the “increase in TO fluorescence intensity upon covalent incorporation” value is roughly 40 fold. In addition, the “fluorescence intensity with in vitro transcribed mCherry-TAG RNA” value in assay [6] (TGT present vs absent (FIG. 3B)) is given as “significant increase in fluorescence intensity”. The “fluorescence turn-on with mCherry-TAGΔC transcript” value in assay [6] (in the presence of enzyme) is reported as “negligible fluorescence turn-on”.
